Measurements taken from patent US5723306A, “Monoclonal antibodies for the detection of pyrethroids and a process for their production” (Dragerwerk Aktiengesellschaft, priority 1993, dated 1998).

Columns and labels:
Assay type in all cases: binding, mouse
[1] = test system: hybridoma clone MAB 1/E2-5/B5; assay: competitive immunoassay (ELISA), cross reactivity with MAB 1/E2-5/B5; conditions: n.b. = not determinable
Experimental: (§1) The screening conjugates described in Section 1.2 were used for this purpose. In addition, "Maxisorp" (from the Nunc Corporation) microtiter plates were used. The immunoscreening method, i.e., an indirect, competitive immunoassay with free antibodies, is shown in the form of a schematic diagram in FIG. 7. First, each of the microtiter plate depressions was coated with 300 μL of hapten OVA conjugate (10 μg/mL in carbonate buffer) (coating). This was carded out over the course of 15-18 hours at 4° C. Then the depressions were washed 3 times with, for example, PBS Tween 20 buffer. To block the unoccupied bonding sites on the microtiter plate, about 300 μL of 0.1% OVA solution was added to each depression. This batch was incubated for 1-2 hours and then washed again as described. To verify the results, two separate screening processes were used (FIG. 7):
(§2) In this immunoassay, the hapten-OVA conjugates bound in the solid phase (Section 1.2) compete with the free antigen in the form of a solution of a mixture of pyrethroids. For the direct detection (Section 5.1), 100 μL of PBS buffer and 100 μL of cell culture supernatant (Section 4) per depression are incubated for one hour at room temperature under gentle agitation. Then a washing step is carried out with PBS Tween 20 buffer. This is followed by incubation with the peroxidase-(POD)-conjugated anti-mouse antibodies known to those skilled in the art. After the addition of enzyme substrate, the color is developed. The reaction is stopped after 30 minutes with 2N H2 SO4 and evaluated by spectrophotometry. The positive hybridoma cells, which secrete a specific antibody, give a strong color signal.
(§3) For this purpose, 100 μL of analyte solution (10 mg/L of pyrethroid substance in mixture MIX I/II in PBS buffed and 100 μL of culture supernatant (Section 4) per depression in the microtiter plate are incubated for 1 hour at room temperature.
(§4) If the cell culture supernatant contains specific antibodies with high affinity for at least one substance in the mixture in question (MIX I/II), these bind to the free hapten present in excess (pyrethrins/pyrethroids) and not to the hapten conjugate bound in the solid phase. The monoclonal antibodies bound to the hapten are then removed in the following washing step. This is followed by the incubation, known to those skilled in the art, with peroxidase-(POD)-conjugated anti-mouse antibodies and by subsequent addition of enzyme substrate and color development. After a predetermined incubation time, the microtiter plates are evaluated by spectrophotometry. Positive hybridoma cells which secrete an antibody selective for the pyrethroids in MIX I/II give a weaker color signal or no signal at all. Hybridoma cells which secrete antibodies which bind non-specifically to the hapten conjugate cannot be displaced by the excess pyrethroid and give a corresponding color signal. If no antibodies are present in the culture supernatant, there is no color reaction in either of the two cases.
(§5) Pyrethrum, pyrethroids, their derivatives, and/or their metabolites are detected with the help of the hapten screening conjugates and biotin tracers described in Section 1 and by the use of the competitive immunoassay (ELISA) described in Section 5.
(§6) In the direct-competitive test for low-molecular substances such as pyrethroids, a competition for a constant number of antibody binding sites takes place between an unmarked analyte of unknown quantity (here: pyrethroid) and a tracer (marked hapten) of known quantity. The antibody is immobilized on a solid phase. Depending on the amount of unmarked analyte in the sample, the antibody binding sites are occupied to a greater or lesser extent by tracer or analyte. The tracer is detected by a color reaction, which means that the detection signal on the solid phase is inversely proportional to the amount of analyte detected. The color development is measured by spectrophotometry at a defined wavelength. […]

[2] = test system: hybridoma clone MAB 3/B4-1/F8; assay: competitive immunoassay (ELISA), cross reactivity with MAB 3/B4-1/F8; conditions: n.b. = not determinable
Experimental: as §1, §2, §3, §4, §5, §6

[3] = test system: isolated monoclonal antibodies (groups 3/B4-1/F8 and 1/E2-5/B5); assay: competitive ELISA with the isolated monoclonal antibodies (both groups); conditions: both antibody groups
Experimental: as §1, with “This batch was incubated for 1-2 hours and then washed again as described. To verify the results, two separate screening processes were used (FIG. 7):” left out
In this immunoassay, the hapten-OVA conjugates bound in the solid phase (Section 1.2) compete with the free antigen in the form of a solution of a mixture of pyrethroids. […] The reaction is stopped after 30 minutes with 2N H2 SO4 and evaluated by spectrophotometry. […]
If the cell culture supernatant contains specific antibodies with high affinity for at least one substance in the mixture in question (MIX I/II), these bind to the free hapten present in excess (pyrethrins/pyrethroids) and not to the hapten conjugate bound in the solid phase. […] After a predetermined incubation time, the microtiter plates are evaluated by spectrophotometry. […]

Structure (SMILES) | % cross reactivity [1] | % cross reactivity [2] | cross reactivity (in words) [3]
C=CCC1=C(C)C(OC(=O)[C@@H]2[C@@H](C=C(C)C)C2(C)C)CC1=O (stereo partly shown) [bioallethrin] | 104% | 100% | 
CC(C)=CC1C(C(=O)O)C1(C)C (stereo not shown) [CTS, chrysanthemum acid] | n.b. | n.b. | 
CC1(C)[C@H](C(=O)O)[C@@H]1C=C(Cl)Cl [cis-PMS, (1R,cis)-permethric acid] | n.b. | n.b. | little or no cross-reactivity
CC(C)C(C(=O)OC(C#N)c1cccc(Oc2ccccc2)c1)c1ccc(Cl)cc1 (stereo not shown) [fenvalerat] | n.b. | n.b. | 
CC1(C)C(C=C(Cl)Cl)C1C(=O)OC(C#N)c1cccc(Oc2ccccc2)c1 (stereo not shown) [cypermethrin] |  | n.b. | 
CC1(C)[C@H](C=C(Cl)Cl)[C@H]1C(=O)OCc1c(F)c(F)c(F)c(F)c1F [fenfluthrin] | 13% | 2% | 
CC1(C)[C@H](C=C(Cl)Cl)[C@H]1C(=O)O [trans-PMS, (1R,trans)-permethric acid] | > 1% | n.b. | little or no cross-reactivity
CC(C)=CC1C(C(=O)OCc2cccc(Oc3ccccc3)c2)C1(C)C (stereo not shown) [phenothrin] | 86% | n.b. | 
CC1(C)C(C=C(Cl)Cl)C1C(=O)OC(C#N)c1ccc(F)c(Oc2ccccc2)c1 (stereo not shown) [cyfluthrin] |  | n.b. | 
O=C(O)c1cccc(Oc2ccccc2)c1 [PBZ, 3-phenoxybenzoic acid] | n.b. | n.b. | 
CC1(C)C(C=C(Cl)Cl)C1C(=O)OCc1cccc(Oc2ccccc2)c1 (stereo not shown) [permethrin] |  | n.b. | 
C=CCC1=C(C)C(OC(=O)C2C(C=C(C)C)C2(C)C)CC1=O (stereo not shown) [allethrin] | 100% | 45% | 
CC1(C)[C@H](C(=O)O[C@H](C#N)c2cccc(Oc3ccccc3)c2)[C@@H]1C=C(Br)Br [deltamethrin] | n.b. | n.b. | 
